The source made the active and inactive calls. The calls are words filed in the database; no cut-off is given here.
What was measured:
A549 [1] = assay: Induction of cell cycle arrest in human A549 cells assessed as accumulation of cells at G0/G1 phase at 0.002 uM incubated for 24 hrs by PI staining based flow cytometry analysis (reference value: 66.75%); format: functional
A549/TR [2] = assay: Inhibition of cell growth in human A549/Taxol cells incubated for 72 hrs by SRB method; format: functional, cell-based
[3] = molecular target: T1, Protein cereblon/Tubulin beta (Homo sapiens) (UniProt P68371+Q9H4B7+Q13509+P04350+Q3ZCM7+P07437+Q13885+Q9BVA1+Q9BUF5+Q96SW2+A6NNZ2); assay: Protac activity at CRBN/beta-tubulin in human A549 cells assessed as reduction in beta-tubulin level at 0.25 uM by immunoblotting analysis; format: cell-based; settings: time 6-72 hrs, TDE = time-dependent effect
A549 [4] = assay: Antitumor activity against human A549 cells xenografted in nude mouse assessed as decrease in tumor weight at 15 mg/kg, ip administered once every 2 days for 23 days by Vernier caliper method; format: functional, organism-based; settings: time 23.0 day
HepG2 [5] = assay: Inhibition of cell invasion in human HepG2 cells; format: functional, cell-based
[6] = molecular target: T1, Protein cereblon/Tubulin beta (Homo sapiens); assay: Protac activity at CRBN/beta-tubulin in human A549 cells assessed as reduction in beta-tubulin level at 0.25 uM pretreated with CA-4 for 2 hrs followed by compound addition and measured after 24 hrs by immunoblotting analysis; format: cell-based
[7] = molecular target: T1, Protein cereblon/Tubulin beta (Homo sapiens); assay: Protac activity at CRBN/beta-tubulin in human A549/Taxol cells assessed as reduction in beta-tubulin level at 0.25 uM pretreated with MG-132 followed by compound addition and measured after 48 hrs by immunoblotting analysis; format: cell-based
A549 [8] = assay: Induction of apoptosis in human A549 cells assessed as increase in apoptotic rate at 0.01 uM incubated for 48 hrs by Annexin V-FITC/PI staining based flow cytometry analysis (reference value: 1.3%); format: functional
A549 [9] = assay: Antitumor activity against human A549 cells xenografted in nude mouse assessed as decrease in tumor volume at 15 mg/kg, ip administered once every 2 days for 23 days by Vernier caliper method; format: functional, organism-based; settings: time 23.0 day
A549 [10] = assay: Induction of cell cycle arrest in human A549 cells assessed as accumulation of cells at S phase at 0.01 uM incubated for 24 hrs by PI staining based flow cytometry analysis (reference value: 1.39%); format: functional
[11] = molecular target: T2, Protein cereblon-alpha tubulin (Homo sapiens) (UniProt P0DPH7+P68366+Q71U36+P68363+Q9BQE3+Q6PEY2+A6NHL2+Q9NY65+Q96SW2); assay: Protac activity at CRBN/alpha-tubulin in human A549/Taxol cells assessed as reduction in alpha-tubulin level at 0.25 uM pretreated with MG-132 followed by compound addition and measured after 48 hrs by immunoblotting analysis; format: cell-based
A549/TR [12] = assay: Induction of cell cycle arrest in human A549/Taxol cells assessed as accumulation of cells at S phase at 0.01 uM incubated for 24 hrs by PI staining based flow cytometry analysis (reference value: 2.85%); format: functional
[13] = molecular target: T2, Protein cereblon-alpha tubulin (Homo sapiens); assay: Protac activity at CRBN/alpha-tubulin in human A549 cells assessed as reduction in alpha-tubulin level at 0.01 to 1 uM incubated for 48 hrs by immunoblotting analysis; format: cell-based; settings: dose 0.01-1 µM
HepG2 [14] = assay: Inhibition of DNA synthesis in human HepG2 cells; format: functional, cell-based
A549/TR [15] = assay: Antitumor activity against human A549/Taxol cells xenografted in nude mouse assessed as tumor growth inhibition at 15 mg/kg, ip administered once every 2 days for 23 days by Vernier caliper method; format: functional; settings: 552 h, time 23 day, read-out: TGI
[16] = molecular target: T2, Protein cereblon-alpha tubulin (Homo sapiens); assay: Protac activity at CRBN/alpha-tubulin in human MGC-803 cells assessed as reduction in alpha-tubulin level at 10 to 1000 nM incubated for 48 hrs by immunoblotting analysis; format: cell-based; settings: dose 10-1000 nM
[17] = molecular target: T1, Protein cereblon/Tubulin beta (Homo sapiens); assay: Protac activity at CRBN/beta-tubulin in human MGC-803 cells assessed as reduction in beta-tubulin level at 10 to 1000 nM incubated for 48 hrs by immunoblotting analysis; format: cell-based; settings: dose 10-1000 nM
[18] = molecular target: T2, Protein cereblon-alpha tubulin (Homo sapiens); assay: Protac activity at CRBN/alpha-tubulin in human HepG2 cells assessed as reduction in alpha-tubulin level at 10 to 1000 nM incubated for 48 hrs by immunoblotting analysis; format: cell-based; settings: dose 10-1000 nM
A549/TR [19] = assay: Induction of cell cycle arrest in human A549/Taxol cells assessed as accumulation of cells at S phase at 0.002 uM incubated for 24 hrs by PI staining based flow cytometry analysis (reference value: 2.85%); format: functional
A549/TR [20] = assay: Induction of cell cycle arrest in human A549/Taxol cells assessed as accumulation of cells at G0/G1 phase at 0.01 uM incubated for 24 hrs by PI staining based flow cytometry analysis (reference value: 77.86%); format: functional
A549/TR [21] = assay: Induction of cell cycle arrest in human A549/Taxol cells assessed as accumulation of cells at G2/M phase at 0.002 uM incubated for 24 hrs by PI staining based flow cytometry analysis (reference value: 17.02%); format: functional
[22] = molecular target: T1, Protein cereblon/Tubulin beta (Homo sapiens); assay: Protac activity at CRBN/beta-tubulin in human HepG2 cells assessed as reduction in beta-tubulin level at 10 to 1000 nM incubated for 48 hrs by immunoblotting analysis; format: cell-based; settings: dose 10-1000 nM
[23] = molecular target: T3, Protein cereblon/Tubulin beta-3 chain (Homo sapiens, UniProt Q13509+Q96SW2); assay: Protac activity at CRBN/beta3-tubulin in human A549 cells assessed as reduction in beta3-tubulin level at 0.25 uM by immunoblotting analysis; format: cell-based; settings: time 6-72 hrs, TDE = time-dependent effect
[24] = molecular target: T2, Protein cereblon-alpha tubulin (Homo sapiens); assay: (§1) Protac activity at CRBN/alpha-tubulin in human A549 cells assessed as reduction in alpha-tubulin level incubated for 48 hrs by immunoblotting analysis; format: cell-based
[25] = molecular target: Protein cereblon-alpha tubulin; assay: as §1; format: cell-based
A549 [26] = assay: Induction of apoptosis in human A549 cells assessed as increase in apoptotic rate at 0.002 uM incubated for 48 hrs by Annexin V-FITC/PI staining based flow cytometry analysis (reference value: 1.3%); format: functional
U-937 = assay: Antiproliferative activity against human U-937 cells incubated for 72 hrs; format: functional, cell-based; settings: U-937, 72 h
[27] = molecular target: T2, Protein cereblon-alpha tubulin (Homo sapiens); assay: Protac activity at CRBN/alpha-tubulin in human A549 cells assessed as reduction in alpha-tubulin level at 0.25 uM pretreated with CA-4 for 2 hrs followed by compound addition and measured after 24 hrs by immunoblotting analysis; format: cell-based
[28] = molecular target: T2, Protein cereblon-alpha tubulin (Homo sapiens); assay: Protac activity at CRBN/alpha-tubulin in human A549/Taxol cells assessed as reduction in alpha-tubulin level at 0.25 uM pretreated with pomalidomide for 2 hrs followed by compound addition and measured after 48 hrs by immunoblotting analysis; format: cell-based
[29] = molecular target: T3, Protein cereblon/Tubulin beta-3 chain; assay: Protac activity at CRBN/beta3-tubulin in human A549 cells assessed as reduction in beta3-tubulin level at 0.25 uM pretreated with MG-132 followed by compound addition and measured after 24 hrs by immunoblotting analysis; format: cell-based
HepG2 [30] = assay: Induction of cell cycle arrest in human HepG2 cells assessed as G2/M phase arrest; format: functional, cell-based
A549 [31] = assay: Induction of cell cycle arrest in human A549 cells assessed as accumulation of cells at G2/M phase at 0.05 uM incubated for 24 hrs by PI staining based flow cytometry analysis (reference value: 31.86%); format: functional

T3 sequence (Q13509 whole entry, looked up): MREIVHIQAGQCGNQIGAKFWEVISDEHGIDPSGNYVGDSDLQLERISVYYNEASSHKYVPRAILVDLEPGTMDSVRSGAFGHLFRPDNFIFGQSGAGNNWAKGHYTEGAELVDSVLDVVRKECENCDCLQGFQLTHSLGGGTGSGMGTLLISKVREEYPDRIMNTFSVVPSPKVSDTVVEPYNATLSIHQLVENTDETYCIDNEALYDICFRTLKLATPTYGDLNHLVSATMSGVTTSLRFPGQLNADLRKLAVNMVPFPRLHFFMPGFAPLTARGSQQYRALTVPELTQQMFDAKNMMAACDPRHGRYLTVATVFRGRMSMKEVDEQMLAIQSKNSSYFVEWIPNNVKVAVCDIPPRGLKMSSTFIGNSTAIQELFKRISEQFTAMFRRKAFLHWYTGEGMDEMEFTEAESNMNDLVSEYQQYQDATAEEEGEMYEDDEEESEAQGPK
T3 sequence (Q96SW2 whole entry, looked up): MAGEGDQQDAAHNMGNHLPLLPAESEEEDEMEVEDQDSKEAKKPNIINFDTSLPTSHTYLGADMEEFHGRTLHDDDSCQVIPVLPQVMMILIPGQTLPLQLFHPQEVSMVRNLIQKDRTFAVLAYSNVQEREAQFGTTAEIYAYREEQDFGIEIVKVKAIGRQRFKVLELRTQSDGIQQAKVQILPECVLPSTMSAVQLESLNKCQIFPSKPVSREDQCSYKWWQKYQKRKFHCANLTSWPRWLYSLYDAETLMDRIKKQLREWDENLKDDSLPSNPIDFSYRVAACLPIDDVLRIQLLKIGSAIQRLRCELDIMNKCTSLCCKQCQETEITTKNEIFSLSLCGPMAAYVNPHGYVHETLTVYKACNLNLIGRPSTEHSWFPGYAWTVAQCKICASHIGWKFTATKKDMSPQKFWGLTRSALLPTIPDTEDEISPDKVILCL

SMILES: COc1ccc(/C=C\c2cc(OC)c(OC)c(OC)c2)cc1OC(=O)CCCNc1cccc2c1C(=O)N(C1CCC(=O)NC1=O)C2=O (stereo not drawn)
- Activity (A549 [1]): 57.32%
- IC50 (A549/TR [2]): 5 nM
- inhibition (A549/TR [2]): Dose-Dependent Effect
- Activity [3]: Tde
- Activity (A549 [4]): Active
- inhibition (HepG2 [5]): Dose-Dependent Effect
- Activity [6]: inactive
- Activity [7]: inactive
- Activity (A549 [8]): 23.1%
- Activity (A549 [9]): Active
- Activity (A549 [10]): 15.35%
- Activity [11]: inactive
- Activity (A549/TR [12]): 10.77%
- Activity [13]: Active
- inhibition (HepG2 [14]): Dose-Dependent Effect
- inhibition in vivo at 15 mg/kg (A549/TR [15]): 65.8%
- Activity [16]: Active
- Activity [17]: Active
- Activity [18]: Active
- Activity (A549/TR [19]): 7.68%
- Activity (A549/TR [20]): 26.79%
- Activity (A549/TR [21]): 23.69%
- Activity [22]: Active
- Activity [23]: Tde
- Activity [24]: Dose-Dependent Effect
- DC50 [25]: 296 nM
- Activity (A549 [26]): 7.23%
- IC50 (U-937): 18 nM
- Activity [27]: inactive
- Activity [28]: inactive
- Activity [29]: inactive
- Activity (HepG2 [30]): Active
- Activity (A549 [31]): 73.41%

From ChEMBL document CHEMBL5518186, “Discovery of the cereblon-recruiting tubulin PROTACs effective in overcoming Taxol resistance in vitro and in vivo” (Eur J Med Chem, 2024)
